Reference: patent US12569472B2, “PPARγ agonists for treatment of kidney disease” (The Research Institute at Nationwide Children's Hospital, priority 2020, dated 2026)
“And” between values parts separate entries of the source, which are not always exact repeats. Equal entries are not always repeated.

What was measured:
[1] = system: hepatic gene expression (Pcsk9, Abca1, F2, SerpinC1); assay: Hepatic gene expression by qRT-PCR; type: in vivo, rat
Protocol: (§1) This study was approved by the Institution Animal Care and Use Committee at Nationwide Children's Hospital, and their guidelines were followed when performing the experiments. Male Wistar rats were intravenously (IV) injected with puromycin aminonucleoside (PAN) (Sigma-Aldrich, St. Louis, Mo.) (50 mg/kg) on Day 0, which induced proteinuria, while control rats were given IV injections of saline. The rats were treated by oral gavage with Pioglitazone (Alfa Aesar, Tewksbury, Mass.) (10 mg/kg), GQ-16 (40 mg/kg), or a sham vehicle daily. GQ-16 and Pio dosages were determined based on previous studies, and GQ-16 was synthesized as previously described. Amato et al., The Journal of biological chemistry, 287: 28169-28179 (2012). Spot urine and serum were collected, and body weights were recorded throughout the study. […] Kerlin et al., Journal of the American Society of Nephrology: JASN, 26: 3009-3019 (2015). Kidneys were harvested, and the glomeruli were isolated using the sequential sieving method. Agrawal et al., Sci Rep, 6: 24392 (2016). Liver and white adipose tissue (WAT) epididymal fat were collected and flash frozen in liquid nitrogen.
(§2) Total RNA was extracted from isolated WAT epididymal fat and liver tissue samples using the RNeasy kit (Qiagen, Germantown, MD), following the manufacturer's instructions. Tissue samples in lysis buffer were placed in lock tubes with stainless-steel disruption beads and lysed at 30.0 Hz for 4 minutes using the Qiagen TissueLyser (Germantown, MD), followed by RNA isolation from the resulting lysate. Total RNA was isolated from glomeruli tissue samples using the mirVana™ Isolation Kit (Invitrogen, Carlsbad, CA), according to the manufacturer's instructions. Yield and purity were calculated for all isolated RNA samples by measuring the absorbance at 260, 280, and 230 nm and the ratios (both) with a spectrophotometer. 500 ng-1 μg of RNA was subjected to DNase (Invitrogen, Carlsbad, CA) digestion at room temperature for 15 minutes, which was then inactivated with 25 mM EDTA at 65° C. for 10 min. RNA was reverse transcribed using the iScript cDNA Synthesis Kit (Bio-Rad, Hercules, CA) according to the manufacturer's instructions. cDNA was used for quantitative reverse transcription-polymerase chain reaction (qRT-PCR) using gene specific and house-keeping primers. SYBR green (Bio-Rad, Hercules, Calif.) qRT-PCR was performed on the Applied Biosystems 7500 Real-Time PCR System. The PCR conditions were 95° C. for 10 minutes, 40× (95° C. for 15 seconds, 60° C. for 1 minute), followed by a melt curve to ensure specific products. The annealing temperature was at 60° C. for all genes except Pgc1a, Pparg, and Cd36 for which 52° C. annealing temperature was used. […]

[2] = system: glomerular gene expression (Nphs1, Nrf2, Trpc6, Pparg); assay: Glomerular gene expression by qRT-PCR; type: in vivo, rat; details: PAN rats
Protocol: as §1, §2

[3] = Body weight in PAN-nephrotic rats; type: in vivo, rat
Protocol: as §1

PPARγ = biological target: T1, PPARγ (Homo sapiens, UniProt P37231); details: cited from earlier work
T1 sequence (P37231 1-505): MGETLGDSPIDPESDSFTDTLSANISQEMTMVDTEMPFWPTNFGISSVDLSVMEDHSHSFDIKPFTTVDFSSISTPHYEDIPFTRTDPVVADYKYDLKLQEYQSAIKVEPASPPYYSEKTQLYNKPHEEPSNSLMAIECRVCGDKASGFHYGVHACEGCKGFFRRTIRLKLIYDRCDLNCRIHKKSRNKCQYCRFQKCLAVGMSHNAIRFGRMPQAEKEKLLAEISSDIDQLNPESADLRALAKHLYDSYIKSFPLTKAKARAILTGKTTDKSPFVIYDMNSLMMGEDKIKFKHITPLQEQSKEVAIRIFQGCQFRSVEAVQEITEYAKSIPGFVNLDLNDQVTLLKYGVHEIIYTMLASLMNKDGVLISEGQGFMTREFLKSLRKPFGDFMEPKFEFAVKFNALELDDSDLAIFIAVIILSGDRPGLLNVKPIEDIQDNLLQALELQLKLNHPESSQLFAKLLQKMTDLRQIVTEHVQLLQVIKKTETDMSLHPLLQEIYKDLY

P-PPARγ (Ser273) = biological target: T2, P-PPARγ (Ser273) (Rattus norvegicus, UniProt O88275); assay: Western blot of glomerular P-PPARγ (Ser273) / total PPARγ; type: in vivo; details: PAN-nephrotic rats
T2 construct: To isolate protein from the glomeruli, liver, and fat tissues, the samples were lysed; from tissue; host or cells: glomeruli isolated from kidneys of male Wistar rats
T2 sequence (O88275 1-505): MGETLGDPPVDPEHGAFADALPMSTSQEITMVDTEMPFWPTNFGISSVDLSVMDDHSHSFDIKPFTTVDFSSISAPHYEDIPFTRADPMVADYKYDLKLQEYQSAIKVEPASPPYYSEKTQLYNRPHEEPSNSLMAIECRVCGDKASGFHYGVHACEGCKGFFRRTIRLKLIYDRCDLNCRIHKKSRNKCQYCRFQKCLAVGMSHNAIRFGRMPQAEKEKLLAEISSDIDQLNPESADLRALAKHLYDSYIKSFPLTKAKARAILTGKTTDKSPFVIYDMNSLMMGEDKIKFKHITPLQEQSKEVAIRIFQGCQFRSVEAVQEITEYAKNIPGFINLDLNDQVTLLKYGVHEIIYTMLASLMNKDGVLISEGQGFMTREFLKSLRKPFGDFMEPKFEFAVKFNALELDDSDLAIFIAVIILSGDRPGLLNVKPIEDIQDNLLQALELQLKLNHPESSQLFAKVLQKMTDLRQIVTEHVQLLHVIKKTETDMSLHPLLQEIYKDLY
Protocol: Male Wistar rats were intravenously (IV) injected with puromycin aminonucleoside (PAN) (Sigma-Aldrich, St. Louis, Mo.) (50 mg/kg) on Day 0, which induced proteinuria, while control rats were given IV injections of saline. The rats were treated by oral gavage with Pioglitazone (Alfa Aesar, Tewksbury, Mass.) (10 mg/kg), GQ-16 (40 mg/kg), or a sham vehicle daily. […] Spot urine and serum were collected, and body weights were recorded throughout the study. […] Kidneys were harvested, and the glomeruli were isolated using the sequential sieving method.
To isolate protein from the glomeruli, liver, and fat tissues, the samples were lysed in a lock tube with RIPA buffer (1M Tris HCl, 0.5M EDTA, 5M NaCl, 10% SDS) containing protease inhibitor cocktail (Thermo Scientific, Waltham, MA) and phosphatase inhibitor cocktail (Alfa Aesar, Tewksbury, MA) and a stainless-steel disruption bead using a Qiagen TissueLyser (Germantown, Md.). Following lysis/homogenization at 30.0 Hz for 4 minutes (liver and fat) or 1 minute (glomeruli), samples were centrifuged for 10 minutes at 4° C. at 12,000 rpm. The supernatant was collected, and the proteins were resolved by SDS-PAGE and transferred to an Immobilon-P polyvinylidene difluoride (PVDF) Transfer Membrane (Millipore Sigma, St. Louis, MO). […] Protein bands were detected by chemiluminescence using the Chemidoc MP Imaging System (Bio-Rad, Hercules, CA). […]

[4] = biological target: T3, PPARγ phosphorylation at Ser273 (Homo sapiens, UniProt P37231); details: in vitro assay; cited from earlier work
T3 sequence (P37231 1-505): T1 sequence (P37231 1-505)

[5] = system: white adipose tissue gene expression (Ap2, Adipoq, Adipsin, Cd36, Pgc1a, Pparg); assay: White adipose tissue (epididymal fat) gene expression by qRT-PCR; type: in vivo, rat; details: PAN rats
Protocol: as §1
Total RNA was extracted from isolated WAT epididymal fat and liver tissue samples using the RNeasy kit (Qiagen, Germantown, MD), following the manufacturer's instructions. Tissue samples in lysis buffer were placed in lock tubes with stainless-steel disruption beads and lysed at 30.0 Hz for 4 minutes using the Qiagen TissueLyser (Germantown, MD), followed by RNA isolation from the resulting lysate. Total RNA was isolated from glomeruli tissue samples using the mirVana™ Isolation Kit (Invitrogen, Carlsbad, CA), according to the manufacturer's instructions. Yield and purity were calculated for all isolated RNA samples by measuring the absorbance at 260, 280, and 230 nm and the ratios (both) with a spectrophotometer. 500 ng-1 μg of RNA was subjected to DNase (Invitrogen, Carlsbad, CA) digestion at room temperature for 15 minutes, which was then inactivated with 25 mM EDTA at 65° C. for 10 min. RNA was reverse transcribed using the iScript cDNA Synthesis Kit (Bio-Rad, Hercules, CA) according to the manufacturer's instructions. cDNA was used for quantitative reverse transcription-polymerase chain reaction (qRT-PCR) using gene specific and house-keeping primers. SYBR green (Bio-Rad, Hercules, Calif.) qRT-PCR was performed on the Applied Biosystems 7500 Real-Time PCR System. The PCR conditions were 95° C. for 10 minutes, 40× (95° C. for 15 seconds, 60° C. for 1 minute), followed by a melt curve to ensure specific products. The annealing temperature was at 60° C. for all genes except Pgc1a, Pparg, and Cd36 for which 52° C. annealing temperature was used. The melt curve conditions were 95° C. for 15 seconds, 60° C. for 1 minute, 30 seconds incremental increase to 95° C. and 60° C. for 15 seconds. The ΔΔCt method was used to analyze the results, including normalization to housekeeping genes (Rpl6 44 for glomeruli, Ppia 45, 46 for fat and liver). Pfaffl, M W, Nucleic acids research, 29: e45, 2001. Due to melt curve variation for Trpc6, amplified samples were also resolved on a 2% agarose gel, and densitometry was performed using ImageJ (National Institutes of Health, Bethesda, MD) software. Each gene was tested in triplicates for each tissue on at least three different rats per group.

thrombin generation [6] = assay: Thrombin generation assay (TGA) on platelet poor plasma of rats; type: in vivo, rat; details: PAN rats, plasma Day 11; for ETP (endogenous thrombin potential): Pio 10 mg/kg or GQ-16 40 mg/kg daily
Protocol: as §1
Thrombin generation assays (TGA) were performed using the Technothrombin® TGA Kit (Technoclone, Vienna, Austria) and Reagent C (RC) Low on PPP samples collected from the rats to determine various parameters such as the endogenous thrombin potential (ETP) and peak thrombin concentration. These assays were performed at least in duplicate on various rat groups (n=4-7/group). Briefly, PPP at 1:1 ratio with buffer was added to black well plates, and RC Low added. Then TGA substrate was added just before reading on a Spectramax M2 Fluorescent Plate Reader (Molecular Devices, San Jose, CA).

[7] = system: PAN-induced nephropathy in male Wistar rats; assay: Serum chemistry (albumin, cholesterol) in PAN-nephrotic rats; type: in vivo, rat; details: for mean reduction of PAN-induced hypercholesterolemia / serum total cholesterol: Day 11; for serum albumin: Day 11, Pio 10 mg/kg or GQ-16 40 mg/kg daily
Protocol: as §1
Serum albumin and cholesterol were measured using the ACE® albumin and cholesterol reagents (Alfa Wasserman Diagnostic Technologies, LLC, West Caldwell, NJ) on the Vet Axcel (Alfa Wasserman Diagnostic Technologies, LLC, West Caldwell, NJ) at the Clinical Pathology Services, The Ohio State University's College of Veterinary Medicine, according to the manufacturer's instructions.

diabetic mice = details: in the absence of weight gain and edema; cited from earlier work
[8] = system: PAN-induced nephropathy in male Wistar rats; assay: PAN-induced nephropathy rat model: proteinuria (urine protein:creatinine ratio); type: in vivo; details: Day 11, Pio 10 mg/kg or GQ-16 40 mg/kg daily oral gavage; for Urinary protein/creatinine ratio (UPCr): PAN 50 mg/kg IV
Protocol: as §1
Urine was collected from rats daily throughout the study and resolved using sodium dodecyl sulfate-polyacrylamide gel electrophoresis (SDS-PAGE) on an 8% gel and stained with Coomassie Brilliant Blue G-250 (Alfa Aesar, Tewksbury, MA) to visualize the albumin bands. Urine protein:creatinine ratio (UPCr) analyses were performed on urine samples from Day 11 at the time of peak proteinuria by Antech Diagnostics GLP (Morrisville, N.C.) to quantify the proteinuria values.

thrombin generation [9] = details: previous study; cited from earlier work
[10] = in vivo; cited from earlier work

SMILES | body weight (weight reduction of nephrotic rats) [3] | WAT Ap2 (Fabp4) expression [5] [fold] | Lag Phase (thrombin generation [6]) [min] | Peak Thrombin (thrombin generation [6]) [nM] | Velocity Index (thrombin generation [6]) [nM/min] | ETP (endogenous thrombin potential) (thrombin generation [6]) [nM·min] | mean reduction of PAN-induced hypercholesterolemia [7] [%] | serum total cholesterol [7] [mg/dL] | serum albumin [7] [g/dL] | Urinary protein/creatinine ratio (UPCr) [8] [mg/mg] | mean reduction in PAN-induced proteinuria [8] | further results
COc1ccc(Br)cc1/C=C1\SC(=O)N(Cc2ccc(C)cc2)C1=O [GQ-16, 5-(5-bromo-2-methoxy-benzylidine)-3-(4-methyl-benzyl)-thiazolidine-2,4-dione] | maintained | ~2.2 | 9.250 ± 1.532 | 134.0 ± 35.54 | 19.91 ± 6.643 | 2544 ± 489.0 | 86 | 93.14 ± 13.36 | 2.64 ± 0.15 | 8.01 ± 3.54 | 84% and 81% | hepatic Pcsk9 expression ([1]; PAN rats (PAN ~30 fold up)): restored to control levels; hepatic F2 expression ([1]; PAN rats, tendency, p=0.07): reduced; hepatic SerpinC1 expression ([1]; PAN rats, tendency, p=0.07): reduced; hepatic Abca1 expression ([1]; PAN rats, trend, p=0.057): ~23 fold; glomerular Nphs1 expression ([2]; vs PAN): significantly restored; glomerular Nrf2 expression ([2]; vs PAN): marked restoration; glomerular Pparg expression ([2]; not significant (p=0.06)): somewhat increased; glomerular Trpc6 expression ([2]; trend only): reduction; Ki (PPARγ): 160 nM; phosphorylation status of PPARγ at Ser273 (glomeruli) (P-PPARγ (Ser273)): unaltered; receptor phosphorylation at Ser273 [4]: block; WAT Adipoq expression [5]: induced more robustly; WAT Adipsin (Cfd) expression [5]: induced more robustly; WAT Cd36 expression [5]: no significant differences; WAT Pgc1a expression [5]: trend in increase; WAT Pparg expression [5]: induced; WAT Δ exon 5 splice variant of Pparg, normalized to total Pparg [5]: further reduced; insulin sensitivity (diabetic mice): improve
CCc1ccc(CCOc2ccc(CC3SC(=O)NC3=O)cc2)nc1 (stereo not shown) [Pio, pioglitazone, reference compound] | did not show any significant difference from control rats | ~3.4 | 7.714 ± 0.6974 | 180.8 ± 29.50 | 34.67 ± 8.448 | 3509 ± 427.8 | 80 | 97.86 ± 12.37 | 2.34 ± 0.14 | 13.17 ± 5.51 | 64% | ETP in healthy control rats (thrombin generation [9]): significantly increased; half-life [10]: 8 to 9 h; time of peak (systemic) [10]: 1.5 to 2 h
